Data published in patent US6579899B1, “Composition for treatment of stress” (Massachusetts Institute of Technology, priority 1998, dated 2003).
Structures can show the parent of a compound that is named as a salt.

How the values were obtained:
Sprague-Dawley rats = test: stress related eating (clamp tightened on the tail) in rats; format: in vivo, rat; details: for Stress Eating, relative amount with 0 mg/kg as 100% / Stressed Rats, average amount of food consumed per rat / Stress Eating / Control Rats, average amount of food consumed per rat: 8 hours; for Stressed Rats, average amount of food consumed per rat: clamp tightened on the tail; for Stress Eating: stressed minus control rats; for stress-related eating: stressed rats, 1-10 mg/kg; for Control Rats, average amount of food consumed per rat: untightened clamp
Procedure: The effect of the hydrochloride salt of 6-chloro-2-(1-piperazinyl)pyrazine (MK-212, which is obtained from Merck & Co., Inc. Whitehouse Station, N.J.), on stress related eating in animals is determined through the observation of the effect of experimental compounds on stress-related eating in adult Sprague-Dawley rats. These rats are widely used as a recognized animal model useful in predicting the effect of serotoninergic drugs in humans.
In these experiments, a group of 5 adult female and 5 adult male Sprague-Dawley rats weighing between 200 and 250 grams each are used as control animals. An untightened clamp is placed on the tail of these animals. The untightened clamp provides the unstressed condition. Each animal is placed in an individual cage and allowed free access to food. The amount of food consumed is determined at 2, 4 and 8 hours after the initiation of the trial. A similar group of rats has a clamp tightened on the tail. The amount of food consumed by this stressed group of rats is shown in the 0 mg/kg column. […] similar groups of stressed rats are injected with 1, 2, 5, or 10 mg/kg body weight of MK-212 one hour before initiation of the experiment.
The relative amounts of stress eating with the amount at 0 mg/kg MK-212 as 100% is also shown in the Stress Eating row. The preferred daily dose of MK-212 is about 1 mg/kg body weight to about 10 mg/kg body weight.

obese, stressed patients [1] = test: CES-D test of current levels of emotional distress in patients; format: in vivo, human
Source text: (§1) A subgroup of obese individuals is identified, which individuals describe themselves as being unable to control their eating and who attempt to continue on a weight-reducing diet when experiencing emotional distress. […]
(§2) Objective measurements of emotional distress are made in some patients using the CES-D (Center for […] Depression Form) test, which measures current levels of emotional distress (Radloff, et al., The CES-D Scale: A Self Report Depression Scale for Research in the General Population Applied Psychological Measurement 1: 385-401, 1977); and the POMS (Profile of Mood States test, that assesses tension, depression, anger and confusion (McNair, et al., Profile of Mood States Manual;San Diego: Educational and Industrial Testing Service, 1971); both of these references are hereby incorporated by reference in their entirety. These tests are also given monthly during the treatment period. At the same time, patients also complete questionnaires that ask the patients to rate their appetite and hunger, and also to rate their tendency to eat in response to a variety of emotional and stressful triggers. The patients are also weighed monthly.

obese, stressed patients [2] = test: questionnaire rating appetite and hunger; format: in vivo, human; parameters: Appetite and Cravings: scale not given here
Source text: as §1, §2

obese, stressed patients [3] = test: questionnaire rating tendency to eat in response to emotional and stressful triggers; format: in vivo, human; parameters: Emotional Triggers: scale not given here
Source text: as §1, §2

[4] = 1 mg/kg injected one hour before
[5] = 2 mg/kg injected one hour before
[6] = 5 mg/kg injected one hour before
[7] = 10 mg/kg injected one hour before

Compound	Stress Eating, relative amount with 0 mg/kg as 100% (Sprague-Dawley rats; 1 mg/kg)	Stress Eating, relative amount with 0 mg/kg as 100% (Sprague-Dawley rats; 2 mg/kg)	Stress Eating, relative amount with 0 mg/kg as 100% (Sprague-Dawley rats; 5 mg/kg)	Stress Eating, relative amount with 0 mg/kg as 100% (Sprague-Dawley rats; 10 mg/kg)	Stressed Rats, average amount of food consumed per rat (Sprague-Dawley rats; [4]) [g]	Stressed Rats, average amount of food consumed per rat (Sprague-Dawley rats; [5]) [g]	Stressed Rats, average amount of food consumed per rat (Sprague-Dawley rats; [6]) [g]	Stressed Rats, average amount of food consumed per rat (Sprague-Dawley rats; [7]) [g]	Stress Eating (Sprague-Dawley rats; 1 mg/kg) [g]	Stress Eating (Sprague-Dawley rats; 2 mg/kg) [g]	Stress Eating (Sprague-Dawley rats; 5 mg/kg) [g]	Stress Eating (Sprague-Dawley rats; 10 mg/kg) [g]	stress-related eating (Sprague-Dawley rats)	Control Rats, average amount of food consumed per rat (Sprague-Dawley rats; [4]) [g]	Control Rats, average amount of food consumed per rat (Sprague-Dawley rats; [5]) [g]	Control Rats, average amount of food consumed per rat (Sprague-Dawley rats; [6]) [g]	Control Rats, average amount of food consumed per rat (Sprague-Dawley rats; [7]) [g]	also measured
(S)-2-(Chloro-5-fluoro-indol-1-yl)-1-methylethylamine [Ro 60-0332/ORG 35035]	(103%)	(28%)	(17%)	(13%)	4.87	2.19	1.83	1.74	3.58	0.99	0.60	0.46	reduces stress-related eating	1.29	1.20	1.21	1.28	–
Cc1ccc2c(c1)-c1c(ccn1C[C@H](C)N)C2(C)C [Ro 60-175/ORG 35030, (S)-2-(4,4,7-trimethyl-1,4-dihydro-indol (1,2-B)pyrrol-1-yl)-1-methylethylamine]	(74%)	(4%)	(3%)	(1%)	3.66	1.43	1.30	1.16	2.38	0.13	0.10	0.03	reduces stress related eating	1.28	1.30	1.20	1.13	–
CN(C)CCC=C1c2ccccc2CCc2ccccc21 [amitriptyline hydrochloride]	–	–	–	–	–	–	–	–	–	–	–	–	–	–	–	–	–	Mood Scores CES-D (obese, stressed patients [1]; patient twelve, 75 then 100 mg/day, Month 1, baseline 29): 22; Mood Scores CES-D (obese, stressed patients [1]; patient twelve, 75 then 100 mg/day, Month 2, baseline 29): 20; Mood Scores CES-D (obese, stressed patients [1]; patient twelve, 75 then 100 mg/day, Month 3, baseline 29): 23; Mood Scores CES-D (obese, stressed patients [1]; patient twelve, 75 then 100 mg/day, Month 4, baseline 29): 18; Appetite and Cravings (obese, stressed patients [2]; patient twelve, 75 then 100 mg/day, Month 1, baseline 19): 16; Appetite and Cravings (obese, stressed patients [2]; patient twelve, 75 then 100 mg/day, Month 2, baseline 19): 8; Appetite and Cravings (obese, stressed patients [2]; patient twelve, 75 then 100 mg/day, Month 3, baseline 19): 13; Appetite and Cravings (obese, stressed patients [2]; patient twelve, 75 then 100 mg/day, Month 4, baseline 19): 8; Emotional Triggers (obese, stressed patients [3]; patient twelve, 75 then 100 mg/day, Month 1, baseline 25): 22; Emotional Triggers (obese, stressed patients [3]; patient twelve, 75 then 100 mg/day, Month 2, baseline 25): 13; Emotional Triggers (obese, stressed patients [3]; patient twelve, 75 then 100 mg/day, Month 3, baseline 25): 5; Emotional Triggers (obese, stressed patients [3]; patient twelve, 75 then 100 mg/day, Month 4, baseline 25): 3
CCN[C@@H](C)Cc1cccc(C(F)(F)F)c1 [dexfenfluramine hydrochloride]	–	–	–	–	–	–	–	–	–	–	–	–	–	–	–	–	–	Mood Scores CES-D (obese, stressed patients [1]; patient eleven, 30 mg/day, Month 1, baseline 19): 5; Mood Scores CES-D (obese, stressed patients [1]; patient eleven, 30 mg/day, Month 2, baseline 19): 2; Mood Scores CES-D (obese, stressed patients [1]; patient eleven, 30 mg/day, Month 3, baseline 19): 3; Appetite and Cravings (obese, stressed patients [2]; patient eleven, 30 mg/day, Month 1, baseline 9): 6; Appetite and Cravings (obese, stressed patients [2]; patient eleven, 30 mg/day, Month 2, baseline 9): 8; Appetite and Cravings (obese, stressed patients [2]; patient eleven, 30 mg/day, Month 3, baseline 9): 3; Appetite and Cravings (obese, stressed patients [2]; patient eleven, 30 mg/day, Month 4, baseline 9): 5; Emotional Triggers (obese, stressed patients [3]; patient eleven, 30 mg/day, Month 1, baseline 30): 12; Emotional Triggers (obese, stressed patients [3]; patient eleven, 30 mg/day, Month 2, baseline 30): 13; Emotional Triggers (obese, stressed patients [3]; patient eleven, 30 mg/day, Month 3, baseline 30): 5
